# Conditions: Liquid, Chromatography
smiles,measurement,setting,value
"CC(C)CC(C)(C)C [2,2,4-trimethylpentane]",vapor or sublimation pressure,323.65 K,20 kPa
same,vapor or sublimation pressure,372.33 K,101.3 kPa
CCC(C)=O [butanone],vapor or sublimation pressure,309.65 K,20 kPa
same,vapor or sublimation pressure,319.95 K,30 kPa
same,vapor or sublimation pressure,352.68 K,101.3 kPa
CCCCCCC [heptane],vapor or sublimation pressure,324.56 K,20 kPa
same,vapor or sublimation pressure,371.35 K,101.3 kPa
CCCCCC [hexane],vapor or sublimation pressure,307.66 K,30 kPa
same,vapor or sublimation pressure,341.79 K,101.3 kPa
